Reference: patent publication US20100216791A1, “PYRIDINYLQUINAZOLINAMINE DERIVATIVES AND THEIR USE AS B-RAF INHIBITORS” (ASTRAZENECA, priority 2006, published 2010)

target: Mutant B-Raf (V600E) enzyme (MT B-Raf) (Homo sapiens, UniProt P15056, V600E); test: biochemical; conditions: B-Raf Alpha screen comparable to the described assay; phosphorylation of biotinylated HIS-MEK-AVI; results may be an average of two or more results
Sequence (P15056 whole entry V600E): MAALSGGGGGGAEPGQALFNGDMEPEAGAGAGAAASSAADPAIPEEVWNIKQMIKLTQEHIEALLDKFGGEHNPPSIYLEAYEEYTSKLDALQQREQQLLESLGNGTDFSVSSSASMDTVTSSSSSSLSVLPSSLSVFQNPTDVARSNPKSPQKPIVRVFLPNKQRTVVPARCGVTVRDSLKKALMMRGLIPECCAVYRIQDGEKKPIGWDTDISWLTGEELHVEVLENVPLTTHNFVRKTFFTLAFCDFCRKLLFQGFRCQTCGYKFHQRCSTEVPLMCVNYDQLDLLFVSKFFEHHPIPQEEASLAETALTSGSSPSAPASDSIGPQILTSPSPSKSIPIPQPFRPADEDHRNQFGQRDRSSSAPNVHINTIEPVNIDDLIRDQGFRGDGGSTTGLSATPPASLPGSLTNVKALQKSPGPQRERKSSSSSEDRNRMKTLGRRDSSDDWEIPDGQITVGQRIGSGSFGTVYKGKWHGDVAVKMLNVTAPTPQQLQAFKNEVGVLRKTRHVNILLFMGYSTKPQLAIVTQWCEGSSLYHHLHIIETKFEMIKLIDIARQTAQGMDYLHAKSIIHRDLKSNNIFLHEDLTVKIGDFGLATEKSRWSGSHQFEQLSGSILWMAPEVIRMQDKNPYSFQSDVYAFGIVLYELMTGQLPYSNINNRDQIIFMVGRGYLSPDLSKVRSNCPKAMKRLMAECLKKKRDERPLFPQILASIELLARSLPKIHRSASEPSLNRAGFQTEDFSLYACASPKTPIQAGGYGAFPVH

First: CC(C)NCCNC(=O)c1ccc(Nc2ncc3cc(-c4ccncc4)ccc3n2)cc1 [Example 28, N-[2-(Isopropylamino)ethyl]-4-[(6-pyridin-4-ylquinazolin-2-yl)amino]benzamide]
Second: CNCCCNC(=O)c1ccc(Nc2ncc3cc(-c4ccncc4)ccc3n2)cc1 [Example 59, N-[3-(Methylamino)propyl]-4-[(6-pyridin-4-ylquinazolin-2-yl)amino]benzamide]
The IC50 of the first is 2-fold higher: 0.14 µM for the first, 0.069 µM for the second.

O=C(NCC1CCCN1)c1ccc(Nc2ncc3cc(-c4ccncc4)ccc3n2)cc1 (centres unmarked) [Example 60, 4-[(6-Pyridin-4-ylquinazolin-2-yl)amino]-N-pyrrolidin-2-ylmethylbenzamide] and O=C(NCC1CCCCN1)c1ccc(Nc2ncc3cc(-c4ccncc4)ccc3n2)cc1 (centres unmarked) [Example 68, N-Piperidin-2-ylmethyl-4-[(6-pyridin-4-ylquinazolin-2-yl)amino]benzamide] are within 1.5-fold of each other in IC50: 0.15 µM for the first, 0.11 µM for the second.

Going from COc1cc(Nc2ncc3cc(-c4ccncc4)ccc3n2)ccc1C [Example 87, N-(3-Methoxy-4-methylphenyl)-6-pyridin-4-ylquinazolin-2-amine] to Cc1cccc(Nc2ncc3cc(-c4ccncc4)ccc3n2)c1 [Example 83, N-(3-Methylphenyl)-6-pyridin-4-ylquinazolin-2-amine], the IC50 falls from 2.2 µM to 0.63 µM (3.5-fold).

Going from CC(C)(C)OC(=O)NCCCNC(=O)c1ccc(Nc2ncc3cc(-c4ccncc4)ccc3n2)cc1 [Example 26, tert-Butyl [3-({4-[(6-pyridin-4-ylquinazolin-2-yl)amino]benzoyl}amino)propyl]carbamate] to NCCNC(=O)c1ccc(Nc2ncc3cc(-c4ccncc4)ccc3n2)cc1 [Example 63, N-(2-Aminoethyl)-4-[(6-pyridin-4-ylquinazolin-2-yl)amino]benzamide], the IC50 falls from 0.55 µM to 0.098 µM (5.6-fold).

First: O=C(NCCOCCO)c1ccc(Nc2ncc3cc(-c4ccncc4)ccc3n2)cc1 [Example 8, N-[2-(2-Hydroxyethoxy)ethyl]-4-[(6-pyridin-4-ylquinazolin-2-yl)amino]benzamide]
Second: O=C(O)c1ccc(Nc2ncc3cc(-c4ccncc4)ccc3n2)cc1 [Example 122, 4-(6-(Pyridin-4-yl)quinazolin-2-ylamino)benzoic acid]
The IC50 of the first is 1.5-fold higher: 0.12 µM for the first, 0.078 µM for the second.

Going from COCC(C)NC(=O)c1ccc(Nc2ncc3cc(-c4ccncc4)ccc3n2)cc1 (centres unmarked) [Example 32, N-(2-Methoxy-1-methylethyl)-4-[(6-pyridin-4-ylquinazolin-2-yl)amino]benzamide] to O=C(NCC1CCCO1)c1ccc(Nc2ncc3cc(-c4ccncc4)ccc3n2)cc1 (centres unmarked) [Example 14, 4-[(6-Pyridin-4-ylquinazolin-2-yl)amino]-N-(tetrahydrofuran-2-ylmethyl)benzamide], the IC50 rises from 0.13 µM to 0.21 µM (1.6-fold). The first is the more potent here.

O=C(NCCN1CCOCC1)c1ccc(Nc2ncc3cc(-c4ccncc4)ccc3n2)cc1 [Example 5, N-(2-Morpholin-4-ylethyl)-4-[(6-pyridin-4-ylquinazolin-2-yl)amino]benzamide] and Cc1cc(Nc2ncc3cc(-c4ccncc4)ccc3n2)ccc1C(=O)NCCN1CCCCC1 [Example 51, 2-Methyl-N-(2-(piperidin-1-yl)ethyl)-4-(6-(pyridin-4-yl)quinazolin-2-ylamino)benzamide] are within 1.5-fold of each other in IC50: 0.18 µM for the first, 0.13 µM for the second.

CN1CCN(Cc2ccc(Nc3ncc4cc(-c5ccncc5)ccc4n3)cc2)CC1 [Example 132] and OCc1ccc(Nc2ncc3cc(-c4ccncc4)ccc3n2)cc1 [Example 78, {4-[(6-Pyridin-4-ylquinazolin-2-yl)amino]phenyl}methanol] are within 1.5-fold of each other in IC50: 0.073 µM for the first, 0.066 µM for the second.

First: CS(=O)(=O)c1ccc(Nc2ncc3cc(-c4ccncc4)ccc3n2)cc1 [Example 103, N-[4-(Methylsulfonyl)phenyl]-6-pyridin-4-ylquinazolin-2-amine]
Second: O=S(=O)(c1ccc(Nc2ncc3cc(-c4ccncc4)ccc3n2)cc1)C(F)F [Example 95, N-{4-[(Difluoromethyl)sulfonyl]phenyl}-6-pyridin-4-ylquinazolin-2-amine]
The IC50 of the first is 16-fold lower: 0.062 µM for the first, 1 µM for the second. The first is the more potent here.

Compared with COCCNC(=O)c1ccc(Nc2ncc3cc(-c4ccncc4)ccc3n2)c(OC)c1 [Example 114], CNCCNC(=O)c1ccnc(Nc2ncc3cc(-c4ccncc4)ccc3n2)c1 [Example 66, N-[2-(Methylamino)ethyl]-2-[(6-pyridin-4-ylquinazolin-2-yl)amino]isonicotinamide] is 9.7-fold lower in IC50: 6.8 µM for the first, 0.7 µM for the second. The second is the more potent here.

Compared with OCCc1ccc(Nc2ncc3cc(-c4ccncc4)ccc3n2)cc1 [Example 52, 2-{4-[(6-Pyridin-4-ylquinazolin-2-yl)amino]phenyl}ethanol], Fc1ccc(Nc2ncc3cc(-c4ccncc4)ccc3n2)cc1 [Example 105, N-(4-Fluorophenyl)-6-pyridin-4-ylquinazolin-2-amine] is 10-fold higher in IC50: 0.12 µM for the first, 1.2 µM for the second. The first is the more potent here.

First: O=S(=O)(c1cccc(Nc2ncc3cc(-c4ccncc4)ccc3n2)c1)N1CCCC1 [Example 93, 6-Pyridin-4-yl-N-[3-(pyrrolidin-1-ylsulfonyl)phenyl]quinazolin-2-amine]
Second: c1cc(Nc2ncc3cc(-c4ccncc4)ccc3n2)cc(N2CCOCC2)c1 [Example 85, N-(3-Morpholin-4-ylphenyl)-6-pyridin-4-ylquinazolin-2-amine]
The IC50 of the first is 7.7-fold higher: 3 µM for the first, 0.39 µM for the second.

Going from CC(c1ccc(Nc2ncc3cc(-c4ccncc4)ccc3n2)cc1)N(C)C (centres unmarked) [Example 133] to Nc1ccc(Nc2ncc3cc(-c4ccncc4)ccc3n2)cc1 [Example 137], the IC50 rises from 0.046 µM to 0.08 µM (1.7-fold). The first is the more potent here.

Compared with O=C(NC1CCNCC1)c1ccc(Nc2ncc3cc(-c4ccncc4)ccc3n2)cc1 [Example 67, N-Piperidin-4-yl-4-[(6-pyridin-4-ylquinazolin-2-yl)amino]benzamide], c1cc(-c2ccc3nc(Nc4ccc(OCCN5CCCCC5)cc4)ncc3c2)ccn1 [Example 42, N-[4-(2-Piperidin-1-ylethoxy)phenyl]-6-pyridin-4-ylquinazolin-2-amine] is 2.1-fold higher in IC50: 0.11 µM for the first, 0.23 µM for the second.

With COCCNC(=O)c1ccc(Nc2ncc3cc(-c4ccncc4F)ccc3n2)cc1 [Example 48, 4-{[6-(3-Fluoropyridin-4-yl)quinazolin-2-yl]amino}-N-(2-methoxyethyl)benzamide] the IC50 was 0.27 µM.
